In this assay the target is T1, hKv3.1b (Homo sapiens, UniProt P48547).
T1 construct: expressed in transfected cells
T1 sequence (P48547 1-585 isoform P48547-2): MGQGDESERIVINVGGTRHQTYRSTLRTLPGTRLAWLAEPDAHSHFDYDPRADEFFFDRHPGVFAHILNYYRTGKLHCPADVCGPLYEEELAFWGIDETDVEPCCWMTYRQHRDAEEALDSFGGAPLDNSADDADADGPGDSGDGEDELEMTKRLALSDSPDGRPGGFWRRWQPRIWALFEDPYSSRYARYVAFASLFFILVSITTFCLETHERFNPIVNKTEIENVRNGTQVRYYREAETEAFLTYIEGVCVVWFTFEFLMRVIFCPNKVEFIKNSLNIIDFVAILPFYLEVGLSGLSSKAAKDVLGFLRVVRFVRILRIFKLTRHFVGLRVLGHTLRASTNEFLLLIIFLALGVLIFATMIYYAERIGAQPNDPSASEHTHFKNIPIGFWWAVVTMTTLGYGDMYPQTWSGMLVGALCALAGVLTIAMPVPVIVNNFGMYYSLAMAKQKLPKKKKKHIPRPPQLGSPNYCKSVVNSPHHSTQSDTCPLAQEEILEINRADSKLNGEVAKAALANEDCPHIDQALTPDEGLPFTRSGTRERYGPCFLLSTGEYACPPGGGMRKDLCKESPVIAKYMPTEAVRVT
The assay can be described thus: Automated whole-cell patch-clamp (QPatch-16x) on HEK-293 cells stably expressing hKv3.1b: shift of voltage threshold for channel activation. Type of assay: cell-based. The following applies: HEK-293 hKv3.1b; for ECdelta5mV: concentration needed to shift the threshold 5 mV, read out from fitted concentration response curve; for Max Delta threshold: maximum absolute shift of activation threshold to more hyperpolarized potentials at the tested concentrations (0.37, 1.11, 3.33, 10, 30 μM). How it is done:
HEK-293 cells stably expressing hKv3.1b was used for the experiments. Cells were cultured in DMEM medium supplemented with 10% Fetal Bovine Serum, 100 ug/mL Geneticidin and 100 u/mL Penicillin/Streptomycin (all from Gibco). Cells were grown to 80-90% confluency at 37° C. and 5% CO2. On the day of the experiment the cells were detached from the tissue culture flasks by Detachin and resuspended in serum free medium containing 25 mM HEPES and transferred to the cell hotel of the QPatch. The cells were used for experiments 0-5 hours after detachment.
Patch-clamp recordings were performed using the automated recording system QPatch-16x (Sophion Bioscience, Denmark). Cells were centrifuged, SFM removed and the cells were resuspended in extracellular buffer containing (in mM): 145 NaCl, 4 KCl, 1 MgCl2, 2 CaCl2, 10 HEPES and 10 glucose (added fresh on the day of experiment); pH 7.4 adjusted with NaOH, 305 mOsm adjusted with sucrose.
Single cell whole-cell recordings were carried out using an intracellular solution containing (in mM): 120 KCl, 32.25/10 KOH/EGTA, 5.374 CaCl2, 1.75 MgCl2, 10 HEPES, 4 Na2ATP (added fresh on the day), pH 7.2 adjusted with KOH, […] adjusted with sucrose. Cell membrane potentials were held at −80 mV and currents were evoked by voltage steps (200 ms duration) from −70 mV to +10 mV (in 10 mV increments).
Leak subtraction protocol was applied at −33% of the sweep amplitude, and serial resistance values were constantly monitored.
Any cell where serial resistance exceeded 25 MOhm, membrane resistance less than 200 MOhm or current size at −10 mV less than 200 pA was eliminated from the subsequent analysis.
Data analysis was performed using Sophion's QPatch assay software in combination with Microsoft Excel™ (Redmond, Wash., USA).
Current voltage relationships were plotted from the peak current at the individual voltage steps normalized to the vehicle addition at 10 mV. The voltage threshold for channel activation was defined as 5% activation of the peak current at 10 mV in presence of vehicle. The activity of the compounds was described as the ability to shift this current voltage relationship to more hyperpolarized potentials and is given as the maximum absolute shift possible at the tested concentrations (0.37, 1.11, 3.33, 10, 30 μM). Concentration response curves were plotted from the threshold shift at the individual concentrations and were fitted excel fit model 205 sigmodal dose-response model (fit=A+((B−A)/1+((C/x)^D)))), where A is the minimum value, B the maximum value, C the EC50 value and D the slope of the curve. The concentration needed to shift the threshold 5 mV was readout from this curve (ECdelta 5 mV).
A general note: The patch-clamp technique gives a direct electrical read-out from membranes.

Experimental findings from patent US20220220095A1, “N-((HETEROARYL)METHYL)-1-TOSYL-1H-PYRAZOLE-3-CARBOXAMIDE DERIVATIVES AS Kv3 POTASSIUM CHANNEL ACTIVATORS FOR TREATING NEUROLOGICAL AND [sequence] DISORDERS” (H. Lundbeck A/S, priority 2019, published 2022) are described below.

Take `COc1ccc(S(=O)(=O)n2ccc(C(=O)NCc3cnn(C)c3)n2)cc1` [Compound 41, 1-(4-methoxybenzene-1-sulfonyl)-N-[(1-methyl-1H-pyrazol-4-yl)methyl]-1H-pyrazole-3-carboxamide]: the ECdelta5mV is 1200 nM and the “Max Delta threshold” value is on record as 25 mV.

`Cc1noc(CNC(=O)c2ccn(S(=O)(=O)c3ccccc3C)n2)n1` [Compound 23, 1-(2-methylbenzene-1-sulfonyl)-N-[(3-methyl-1,2,4-oxadiazol-5-yl)methyl]-1H-pyrazole-3-carboxamide]: the ECdelta5mV worked out at 5300 nM and the “Max Delta threshold” value amounted to 13 mV.

As for `Cc1ccc(S(=O)(=O)n2ccc(C(=O)NCc3ccn(C)n3)n2)cc1` [Compound 39, 1-(4-methylbenzene-1-sulfonyl)-N-[(1-methyl-1H-pyrazol-3-yl)methyl]-1H-pyrazole-3-carboxamide], the ECdelta5mV is recorded as 1600 nM and the “Max Delta threshold” value came out at 21 mV.

`COc1ccc(S(=O)(=O)n2ccc(C(=O)NCc3nc(C)cs3)n2)cc1` [Compound 6, 1-(4-methoxybenzene-1-sulfonyl)-N-[(4-methyl-1,3-thiazol-2-yl)methyl]-1H-pyrazole-3-carboxamide]: the ECdelta5mV turned out to be 1300 nM and the “Max Delta threshold” value was determined as 22 mV.

`Cn1ccc(CNC(=O)c2ccn(S(=O)(=O)c3ccc(F)cc3)n2)n1` [Compound 35, 1-(4-fluorobenzene-1-sulfonyl)-N-[(1-methyl-1H-pyrazol-3-yl)methyl]-1H-pyrazole-3-carboxamide]: the ECdelta5mV came out at 4800 nM and the “Max Delta threshold” value is given as 12 mV.

With `COc1ccc(S(=O)(=O)n2ccc(C(=O)NCc3cnc(C)cn3)n2)cc1F` [Compound 74, 1-(3-fluoro-4-methoxy-phenyl)sulfonyl-N-[(5-methylpyrazin-2-yl)methyl]pyrazole-3-carboxamide], the ECdelta5mV stood at 3200 nM and the “Max Delta threshold” value turned out to be 17 mV.

In the case of `Cc1cnc(CNC(=O)c2ccn(S(=O)(=O)c3ccc(OC(F)F)cc3)n2)cn1` [Compound 65, 1-[4-(difluoromethoxy)phenyl]sulfonyl-N-[(5-methylpyrazin-2-yl)methyl]pyrazole-3-carboxamide], the ECdelta5mV was 3600 nM and the “Max Delta threshold” value is 25 mV.

Turning to `Cc1ccc(S(=O)(=O)n2cc(C)c(C(=O)NCc3cnc(C)cn3)n2)cc1` [Compound 32, 4-methyl-1-(4-methylbenzene-1-sulfonyl)-N-[(5-methylpyrazin-2-yl)methyl]-1H-pyrazole-3-carboxamide], the ECdelta5mV turned out to be 4300 nM and the “Max Delta threshold” value was 12 mV.

Turning to `Cc1ccc(S(=O)(=O)n2ccc(C(=O)NCc3nc(C)no3)n2)cc1` [Compound 48, 1-(4-methylbenzene-1-sulfonyl)-N-[(3-methyl-1,2,4-oxadiazol-5-yl)methyl]-1H-pyrazole-3-carboxamide], the ECdelta5mV stood at 1500 nM and the “Max Delta threshold” value was 24 mV.

As for `Cc1ccc(S(=O)(=O)n2ccc(C(=O)NCc3cnccn3)n2)cc1` [Compound 24, 1-(4-methylbenzene-1-sulfonyl)-N-[(pyrazin-2-yl)methyl]-1H-pyrazole-3-carboxamide], the ECdelta5mV amounted to 2000 nM and the “Max Delta threshold” value was 23 mV.

With `Cc1ccc(S(=O)(=O)n2ccc(C(=O)NCc3cncnc3)n2)cc1` [Compound 54, 1-(4-methylbenzene-1-sulfonyl)-N-[(pyrimidin-5-yl)methyl]-1H-pyrazole-3-carboxamide], the ECdelta5mV turned out to be 2400 nM and the “Max Delta threshold” value stood at 21 mV.

On to `Cc1cnc(CNC(=O)c2ccn(S(=O)(=O)c3ccc(C(F)(F)F)cc3)n2)cn1` [Compound 78, N-[(5-methylpyrazin-2-yl)methyl]-1-[4-(trifluoromethyl)phenyl]sulfonyl-pyrazole-3-carboxamide], for which the ECdelta5mV came to 3000 nM and the “Max Delta threshold” value is listed as 23 mV.
